Consider six compounds from patent US20060069132A1, “Azolecarboxamide herbicides” (priority 2004, published 2006).

Test in all cases: Test C postemergence herbicide test
One experiment deals with green foxtail. Format: in vivo, Setaria viridis. Summed up:
(§1)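 Postemergence sprays applied to plants 2 to 18 cm tall (1- to 4-leaf stage); paddy species grown to 2-leaf stage under flooding. After 12 to 14 days in greenhouse, visual rating versus untreated controls on 0–100 scale (0 no effect, 100 complete control).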

Another experiment has as its system canarygrass. Format: in vivo, Phalaris minor. Summed up: as §1
Another experiment deals with windgrass. In kind it is in vivo, Apera spica-venti. Summed up: as §1
[1] abbreviates: Postemergence, 500 g ai/ha, scale 0 to 100.
The mark [2] stands for this setting: Postemergence, 250 g ai/ha, scale 0 to 100, 0 no effect, 100 complete control.
[3] abbreviates: postemergence, 125 g ai/ha, scale 0 to 100.
Setting [4] is: postemergence, 62 g ai/ha, scale 0 to 100.
The mark [5] stands for this setting: Postemergence, 500 g ai/ha, scale 0 to 100, 0 no effect, 100 complete control.
Where [6] appears, read: postemergence, 31 g ai/ha, scale 0 to 100.

The structures appear in SMILES notation.

For the compound `CCn1nc(C2(C)CC2)cc1C(=O)Nc1cc(C(=O)N2CC=CC2)ccc1F` [Compound 301], the “Foxtail, Green plant response rating” value in the experiment on green foxtail (setting [1]) was 65. Moreover, the “Plant response rating, Foxtail, Green” value in the experiment on green foxtail (setting [2]) was 60; in the experiment with green foxtail (setting [3]), 45; in the experiment on green foxtail (setting [4]), 40. Besides, the “Canarygrass plant response rating” value in the experiment on canarygrass (setting [1]) was 50. Besides, the “Plant response rating, Canarygrass” value in the experiment on canarygrass (setting [2]) turned out to be 50; with canarygrass (setting [3]) it was 45; with canarygrass (setting [4]), 35. Further, the “Windgrass plant response rating” value with windgrass (setting [1]) was determined as 40. The “Plant response rating, Windgrass” value in the experiment with windgrass (setting [2]), in the experiment on windgrass (setting [3]) and with windgrass (setting [4]) was 35 each time.

Turning to `CCn1nc(C(C)(C)C)cc1C(=O)Nc1cccc(OS(=O)(=O)CC)c1` [Compound 408], the “Plant response rating, Foxtail, Green” value in the experiment on green foxtail (setting [2]) came out at 70; in the experiment with green foxtail (setting [5]) it was 80; with green foxtail (setting [3]) it was 60; in the experiment on green foxtail (setting [4]), 40. In addition, the “Plant response rating, Canarygrass” value in the experiment on canarygrass (setting [2]) was 40; with canarygrass (setting [5]), 45; in the experiment on canarygrass (setting [3]), 30; in the experiment with canarygrass (setting [4]) it was 20. In addition, the “Plant response rating, Windgrass” value with windgrass (setting [5]) came out at 65; in the experiment with windgrass (setting [3]), 45; with windgrass (setting [4]), 40.

As for `CCn1nc(C(C)(C)C)cc1C(=O)Nc1cc(OC(F)(F)F)ccc1F` [Compound 338], the “Plant response rating, Foxtail, Green” value in the experiment on green foxtail (setting [2]) is 40; with green foxtail (setting [5]) it was 50; in the experiment on green foxtail (setting [3]) it was 40; in the experiment on green foxtail (setting [4]), 30. For the same compound, the “Plant response rating, Canarygrass” value in the experiment with canarygrass (setting [2]) was found to be 40; with canarygrass (setting [5]), 50; with canarygrass (setting [3]), 25; in the experiment on canarygrass (setting [4]) it was 20. In addition, the entries for the “Plant response rating, Windgrass” value in the experiment with windgrass (setting [3]) and in the experiment on windgrass (setting [4]) were 15 and 10, respectively.

With `CCCCOc1cccc(NC(=O)c2cc(C(C)(C)C)nn2CC)c1` [Compound 137], the “Foxtail, Green plant response rating” value in the experiment with green foxtail (setting [1]) was 50. The “Plant response rating, Foxtail, Green” value is 50 in the experiment on green foxtail (setting [2]), 50 in the experiment with green foxtail (setting [3]) and 30 in the experiment with green foxtail (setting [4]). The “Canarygrass plant response rating” value in the experiment on canarygrass (setting [1]) is 40. The “Plant response rating, Canarygrass” value with canarygrass (setting [2]) is 40; in the experiment on canarygrass (setting [3]) it was 30; in the experiment on canarygrass (setting [4]), 20. For the same compound, in the experiment with windgrass (setting [1]), the “Windgrass plant response rating” value is 60. The “Plant response rating, Windgrass” value with windgrass (setting [2]) is on record as 50; in the experiment on windgrass (setting [3]) it was 50; with windgrass (setting [4]), 30.

Consider `CCOC(=O)c1cccc(NC(=O)c2cc(C3(C)CC3)nn2CC)c1` [Compound 295], for which the “Plant response rating, Foxtail, Green” value in the experiment with green foxtail (setting [2]) is reported as 60; in the experiment with green foxtail (setting [3]), 50; in the experiment on green foxtail (setting [4]) it was 45. The “Plant response rating, Canarygrass” value came to 35 in the experiment with canarygrass (setting [2]), 35 in the experiment on canarygrass (setting [3]), 25 in the experiment with canarygrass (setting [6]) and 30 with canarygrass (setting [4]). Also, the “Plant response rating, Windgrass” value came out at 65 in the experiment on windgrass (setting [2]), 60 with windgrass (setting [3]) and 50 in the experiment with windgrass (setting [4]).

In the case of `CCn1nc(C(C)(C)C)cc1C(=O)Nc1cccc(C(=O)NCC2CC2)c1` [Compound 62], the “Plant response rating, Foxtail, Green” value in the experiment with green foxtail (setting [2]) worked out at 50; with green foxtail (setting [3]), 50; with green foxtail (setting [4]), 40. In addition, the “Plant response rating, Canarygrass” value in the experiment with canarygrass (setting [2]) is 40; in the experiment on canarygrass (setting [3]) it was 30; in the experiment on canarygrass (setting [6]), 0; in the experiment on canarygrass (setting [4]) it was 0. Besides, the “Plant response rating, Windgrass” value in the experiment on windgrass (setting [2]) turned out to be 50; in the experiment on windgrass (setting [3]), 40; in the experiment on windgrass (setting [4]) it was 30.
